For experiment [1], the system named is human mesenchymal stem cells (MSC). Kind of experiment: In situ hybridization for human DNA in organs after MSC infusion. In kind it is in vivo, NOD-SCID mice. To be noted: 0.56×10^6 MSC preceded by 11 mg orosomucoid i.v. The text has this: Mice were imaged and the biodistribution of the radiolabelled MSCs cells monitored as described in Example 1. […] The positions of the cannula, diaphragm, heart, lungs, and liver were verified by CT scans (coronal sections).
The positions of the cannula, diaphragm, heart, lungs, and liver were verified by CT scans. In situ hybridization confirmed the gamma camera biodistribution data.

Experiment [2] deals with platelet aggregation induced by ADP and adrenaline. The conditions noted are these: reported in the literature; cited from earlier work.
Experiment [3] deals with human mesenchymal stem cells (MSC). Kind of experiment: In vivo trafficking of 111In-labeled human mesenchymal stem cells (MSC) after glycoprotein pretreatment, gamma camera imaging. The arrangement: species or system NOD-SCID mice. The procedure:
Human mesenchymal stem cells (hMSCs; PT-2501) obtained through an FDA-monitored, paid bone marrow donor program were purchased from Poietics Technologies, BioWhittaker (Walkerville, Md.). The cells were thawed according to manufacturer recommendations, resuspended, and radiolabelled in Mesenchymal Stem Cell Basal Medium (MSCBM).
^111Indium Oxine Labelling Procedure: ^111In-oxine labelling of adult human CD34+ or mesenchymal stem cells (hMSCs) was performed using a modification of the Amersham Healthcare Procedure for labelling autologous leukocytes.
Imaging procedures: Nuclear Medicine. NOD-SCID mice were anesthetized using rodent anesthesia cocktail. Once anesthetized, the mice were placed on a foam hemi-cylindrical mouse-positioning device (MPD,) and covered with a tube sock. The MPD allows better visual separation of the lungs and liver as compared to placing the mouse on a flat surface. The foam on which the mouse was placed, and the tube sock covering maintained a comfortable temperature permitting longer imaging without additional anesthesia. The MPD was placed on a narrow table between the dual heads of a Siemens E.Cam Gamma Camera and imaged statically or dynamically in 2-D or SPECT. ^57Co-Spot Marker is used to mark anatomic positions (nose, tail, cannula, etc.). The data was analyzed using a Siemens ICON system for regions of interest or percent of injected dose (e.g., liver, spleen, heart).
Gamma camera imaging using a Siemens E.Cam dual head gamma camera monitored the in vivo trafficking patterns of all human stem cells described in the following examples. Mice were placed on a Mouse Positioning Device (MPD) and placed between the detectors on the imaging platform.
MSC were obtained from BioWhittaker, (Poietics Division, cryopreserved PT-2501>750000 cells per ampoule) and labelled with ^111In as in previous examples, except that the MSC were labelled, washed, and injected in Basal Stem Cell Medium (Poietics) containing 5% human serum albumin (HSA). 0.56×10^6, ^111In-labelled, human mesenchymal stem cells (MSC) were administered via an implanted DaVinci Microport Vascular System cannula in the external jugular vein of a two-month old, female NOD-SCID mouse in 0.21 ml of basal stem cell medium containing 5% human serum albumin (HSA). Immediately prior to administration of MSC, 11.0 mg of orosomucoid was administered i.v. in 0.2 ml.
0.56×10^6, ^111In-labeled MSC were administered i.v. in 0.21 ml of basal stem cell medium containing 5% human serum albumin (HSA). […]

Experiment [4] has as its system human CD34+ (hCD34+) peripheral blood stem cells. Kind of experiment: Microscopic examination of organs: immunohistochemical staining for human CD34 and in situ hybridization for human DNA after HSC infusion. In kind it is in vivo, NOD-SCID mice. From the text:
Harvesting for tissues for histopathology: Tissues were harvested after euthanasia. After the 1-hour image, the organs were harvested and half the organ was fixed in 10% neutral buffered formalin and the other half was frozen in OTC for frozen sections. The images presented herein are from fixed tissues.
Necropsy Procedure For Collection of Mouse Tissues: An initial midline skin incision from the anterior cervical region to the brim of the pubis was made followed by an abdominal incision following linea alba from the sternum to the pubis with a lateral reflection of the abdominal wall by incision following the caudal ribs. The sternum was reflected anteriorly by cutting the ribs at approximately the level of the costochrondral junction, incising the diaphragm and pericardium as needed. Anteriorly, reflection of sternum was extended to include the ventral cervical muscles to expose the trachea. The trachea and esophagus were incised at the mid cervical area and reflected caudally, cutting attachments as necessary to remove the thoracic viscera in toto. Following removal of the thoracic viscera, the entire heart was dissected free and immersed in 10% neutral buffered formalin. […]
Mice were imaged and the biodistribution of the radiolabelled hCD34+ cells monitored as described above. […]

Experiment [5] has the same test system. The experiment can be described thus: In vivo trafficking of 111In-labeled human CD34+ stem cells (HSC) after glycoprotein pretreatment, gamma camera imaging. The arrangement: species or system NOD-SCID mice.
[6] abbreviates: cells infused into the jugular vein of immunodeficient mice, preceded by an infusion of the protein.

Entries after “also recorded” stand apart in the source; their conditions may differ.

As for “Orosomucoid: alpha-(1)-acid glycoprotein, a normal constituent of human plasma; single polypeptide chain, approximately 45% carbohydrate including 12% sialic acid”, the “Location of human cells by in situ hybridization” value in experiment [1] is recorded as “human cells predominantly in the heart, but not the liver”. Moreover, in experiment [2], the “Amounts that inhibit platelet aggregation” value was 5 to 15 mg/mL. Also, the “% Infused Cells In Heart” value in experiment [3] (0.56×10^6 MSC preceded by 11 mg orosomucoid i.v., 0 hr) is 61.7-75.5%; in experiment [3] (0.56×10^6 MSC preceded by 11 mg orosomucoid i.v., 1 hr) it was 58-64%; in experiment [3] (MSC/Orosomucoid, at 12 hr (Table 1)), 61 ± 3% at 12 hr. The “Organ in which mesenchymal stem cells localize (summary, words)” value in experiment [3] (setting [6]) was “predominantly localize in the heart”. Besides, the “Tissue location of hCD34+ cells (CD34 staining, in situ hybridization for human DNA)” value in experiment [4] (0.5×10^6 HSC preceded by 11 mg orosomucoid i.v., about 1 hour after infusion) is “Clusters of cells with stem cell morphology could be seen in the hepatic sinusoid; also recorded: not found in the heart muscle or interventricular septum but were present in the lung”. Moreover, the “Migration of stem cells into tissue (summary, words)” value in experiment [4] (hematopoietic stem cells after protein infusion) is listed as “clusters of stem cells are found in the liver parenchyma”. The “% infused cells in liver region” value in experiment [5] (0.5×10^6 HSC preceded by 11 mg orosomucoid i.v., 1 hr) is on record as 40±3%. Moreover, the “% infused cells in liver and spleen” value in experiment [5] (0.5×10^6 HSC preceded by 11 mg orosomucoid i.v., immediately after infusion) came to 43±2%. Besides, the “111In-labeled HSC in the region of the heart (imaging, words)” value in experiment [5] (5.75×10^6 HSC preceded by 5.5 mg orosomucoid i.v.) is on record as “No ^111In-labeled cells were found in the region of the heart”. In addition, in experiment [5] (setting [6]), the “Organ in which hematopoietic stem cells localize (summary, words)” value was “localize in the liver”.
